Measured values reported in patent US20250146007A1 (priority 2022, published 2025).
“Also recorded” adds a separate entry of the source.

Columns and labels:
C. acnes tdk knock-out = format: cell-based, Cutibacterium acnes
[1] = test system: Neutrophil gelatinase-associated lipocalin 2 (NGAL) protein; settings: human, in vivo; cited from earlier work
PCi-SEB_Cau sebocytes = format: cell-based, human

SMILES: O=c1[nH]c(=O)n([C@H]2C[C@H](O)[C@@H](CO)O2)cc1F [FUDR, 5-fluoro-2′-deoxyuridine]
- growth of tdk knock-out (knock-in) strain on FUDR plates (C. acnes tdk knock-out): could grow; also recorded: no growth inhibiting effect

SMILES: CC[C@H]1OC(=O)[C@H](C)[C@@H](O[C@H]2C[C@@](C)(OC)[C@@H](O)[C@H](C)O2)[C@H](C)[C@@H](O[C@@H]2O[C@H](C)C[C@H](N(C)C)[C@H]2O)[C@](C)(O)C[C@@H](C)C(=O)[C@H](C)[C@@H](O)[C@]1(C)O [ery, erythromycin]
- growth of tdk knock-out (knock-in, ermE) strain on erythromycin plates (C. acnes tdk knock-out): could grow

SMILES: CC1=C(/C=C/C(C)=C/C=C/C(C)=C\C(=O)O)C(C)(C)CCC1 [isotretinoin, 13-cis retinoic acid]
- increase in NGAL protein in treated patients [1]: 7 fold
- decrease in sebum production compared to AA treated cells (PCi-SEB_Cau sebocytes): 1.8 fold
